# Source: patent publication US20100119479A1, “THERAPEUTIC ANTIVIRAL PEPTIDES” (INTERMUNE, INC., priority 2008, published 2010)
# Assays:
# [1] = system: HCV sub-genomic replicon, GS4.3 (HuH-7 hepatoma cells); assay: Quantitation by ELISA of NPTII in the HCV sub-genomic replicon, GS4.3; assay type: cell-based; conditions: Hepatitis C virus, GS4.3 replicon cells, 72 h incubation
# From the text: Quantitation by ELISA of the Selectable Marker Protein, Neomycin Phosphotransferase II (NPTII) in the HCV Sub-Genomic Replicon, GS4.3
# The HCV sub-genomic replicon (1377/NS3-3′, accession No. AJ242652), stably maintained in HuH-7 hepatoma cells, was created by Lohmann et al. Science 285: 110-113 (1999). The replicon-containing cell culture, designated GS4.3, was obtained from Dr. Christoph Seeger of the Institute for Cancer Research, Fox Chase Cancer Center, Philadelphia, Pa.
# GS4.3 cells were maintained at 37° C., 5% CO2, in DMEM (Gibco 11965-092) supplemented with L-glutamine 200 mM (100×) (Gibco25030-081), non-essential amino acids (NEAA)(Biowhittaker 13-114E), heat-inactivated (HI) Fetal Bovine Serum(FBS)(Hyclone SH3007.03) and 750 μg/mL geneticin (G418)(Gibco 10131-035). Cells were sub-divided 1:3 or 4 every 2-3 days.
# 24 h prior to the assay, GS4.3 cells were collected, counted, and plated in 96-well plates (Costar 3585) at 7500 cells/well in […] standard maintenance medium (above) and incubated in the conditions above. To initiate the assay, culture medium was removed, cells were washed once with PBS (Gibco 10010-023) and 90 μl Assay Medium (DMEM, L-glutamine, NEAA, 10% HI FBS, no G418) was added. Inhibitors were made as a 10× stock in Assay Medium, (3-fold dilutions from 10 μM to […] final concentration, final DMSO concentration 1%), […] were added to duplicate wells, plates were rocked to mix, and incubated as above for 72 h.
# An NPTII Elisa kit was obtained from AGDIA, Inc. (Compound direct ELISA test system for Neomycin Phosphotransferase II, PSP 73000/4800). Manufacturer's instructions were followed, with some modifications. 10×PEB-1 lysis buffer was made up to include 500 μM PMSF (Sigma P7626, 50 mM stock in isopropanol). After 72 h incubation, cells were washed once with PBS and […] PEB-1 with PMSF was added per well. Plates were agitated vigorously for 15 minutes, room temperature, then frozen at −70° C. Plates were thawed, lysates were mixed thoroughly, and 100 μl were applied to an NPTII Elisa plate. A standard curve was made. Lysate from DMSO-treated control cells was pooled, serially diluted with PEB-1 with PMSF, and applied to duplicate wells of the ELISA plate, in a range of initial lysate amount of 150 μL-2.5 μL. In addition, 100 μL buffer alone was applied in duplicate as a blank. Plates were sealed and gently agitated at room temperature for 2 h. Following capture incubation, the plates were washed 5×300 μL with PBS-T (0.5% Tween-20, PBS-T was supplied in the ELISA kit). For detection, a 1× dilution of enzyme conjugate diluent MRS-2 (5×) was made in PBS-T, into which 1:100 dilutions of enzyme conjugates A and B were added, as per instructions. Plates were resealed, and incubated with agitation, covered, room temperature, for 2 h. The washing was then repeated and 100 μL, of room temperature TMB substrate was added. After approximately 30 minutes incubation (room temperature, agitation, covered), the reaction was stopped with 50 μL, 3M sulfuric acid. Plates were read at 450 nm on a Molecular Devices Versamax plate reader.
# Inhibitor effect was expressed as a percentage of DMSO-treated control signal, and inhibition curves were calculated using a 4-parameter equation: y=A+((B−A)/(1+((C/x)̂D))), where C is half-maximal activity or EC50.
# [2] = molecular target: T1, full-length NS3/NS4A-2 (HCV NS3 protease) (Hepatitis C virus genotype 1b, UniProt Q9WMX2); assay: NS3 Inhibition Assay (NS3-NS4 protease assay, RETS1 substrate); assay type: biochemical; conditions: NS3/NS4A-2 protease
# T1 construct: Recombinant E. coli or Baculovirus full-length NS3; host or cells: E. coli or baculovirus (BV) expression
# Procedure: NS3 Complex Formation with NS4A-2.
# Recombinant E. coli or Baculovirus full-length NS3 was diluted to 3.33 μM with assay buffer and transferred material to an eppendorf tube and placed in a water bath in a 4° C. refrigerator. The appropriate amount of NS4A-2 diluted to […] in assay buffer was added to equal the volume of NS3 above (conversion factor—3.8 mg/272 μL assay buffer). The material was transferred to an eppendorf tube and placed in water bath in a 4° C. refrigerator.
# After equilibration to 4° C., equal volumes of NS3 and NS4A-2 solutions were combined in an eppendorf tube, mix gently with a manual pipettor, and incubate mixture for 15 minutes in the 4° C. water bath. Final concentrations in the mixture are 1.67 μM NS3, 4.15 mM NS4A-2 (2485-fold molar excess NS4A-2).
# After 15 minutes at 4° C., the NS3/NS4A-2 eppendorf tube was removed and place it in a room temperature water bath for 10 minutes. NS3/NS4A-2 was aliquoted at appropriate volumes and store at −80° C. (E. coli NS3 run at 2 nM in assay, aliquot at 25 μL. BV NS3 run at 3 nM in assay, aliquot at 30 μL).
# Step a. Sample compounds were dissolved to 10 mM in DMSO then diluted to 2.5 mM (1:4) in DMSO. Typically, compounds were added to an assay plate at 2.5 mM concentration, yielding upon dilution a starting concentration of 50 microM in the assay inhibition curve. Compounds were serial diluted in assay buffer to provide test solutions at lower concentrations.
# Step b. The E. coli. NS3/NS4A-2 was diluted to 4 nM NS3 (1:417.5 of 1.67 μM stock−18 μL1.67 μM stock+7497 μL assay buffer). The BV NS3/NS4A-2 was diluted to 6 nM NS3 (1:278.3 of 1.67 μM stock−24 μL1.67 μM stock+6655 μL assay buffer).
# Step c. Using the manual multichannel pipettor, and being careful not to introduce bubbles into the plate, 50 μL assay buffer were added to wells A01-H01 of a black Costar 96-well polypropylene storage plate.
# Step d. Using the manual multichannel pipettor, and being careful not to introduce bubbles into the plate, 50 μL of diluted NS3/NS4A-2 from Step b were added to wells A02-H12 of the plate in Step c.
# Step e. Using the manual multichannel pipettor, and being careful not to introduce bubbles into the plate, 25 μL of the wells in drug dilution plate in Step a were transferred to corresponding wells in assay plate in Step d. The tips on the multichannel pipettor were changed for each row of compounds transferred.
# Step f Using the manual multichannel pipettor, and being careful not to introduce bubbles into the plate, the contentes of the wells from the assay plate in Step e were mixed by aspirating and dispensing 35 μL of the 75 μL in each well five times. The tips on multichannel pipettor were changed for each row of wells mixed.
# Step g. The plate was covered with a polystyrene plate lid, and the plate from Step f containing NS3 protease and sample compounds was pre-incubated 10 minutes at room temperature.
# While plate from Step g is pre-incubating, the RETS1 substrate was diluted in a 15 mL polypropylene centrifuge tube. The RETS1 substrate was diluted to 8 μM (1:80.75 of 646 μM stock—65 μL 646 μM stock+5184 μL assay buffer).
# After the plate in Step g was done pre-incubating, and using the manual multichannel, 25 μL of substrate were added to all wells on the plate. The contents of the wells of the plate were quickly mixed, as in Step f, mixing 65 μL of the 100 μL in the wells.
# The plate was read in kinetic mode on the Molecular Devices SpectraMax Gemini XS plate reader. Reader settings: Read time: 30 minutes, Interval: 36 seconds, Reads: 51, Excitation λ: 335 nm, Emission λ: 495 nm, cutoff: 475 nm, Automix: off, Calibrate: once, PMT: high, Reads/well: 6, Vmax pts: 21 or 28/51 depending on length of linearity of reaction
# IC50s are determined using a four parameter curve fit equation, and converted to Ki's using the following Km's: […]
# Full-length E. coli NS3−2.03 μM
# Full-length BV NS3−1.74 μM
# where Ki=IC50/(1+[S]/Km))
# T1 sequence (Q9WMX2 1027-1657): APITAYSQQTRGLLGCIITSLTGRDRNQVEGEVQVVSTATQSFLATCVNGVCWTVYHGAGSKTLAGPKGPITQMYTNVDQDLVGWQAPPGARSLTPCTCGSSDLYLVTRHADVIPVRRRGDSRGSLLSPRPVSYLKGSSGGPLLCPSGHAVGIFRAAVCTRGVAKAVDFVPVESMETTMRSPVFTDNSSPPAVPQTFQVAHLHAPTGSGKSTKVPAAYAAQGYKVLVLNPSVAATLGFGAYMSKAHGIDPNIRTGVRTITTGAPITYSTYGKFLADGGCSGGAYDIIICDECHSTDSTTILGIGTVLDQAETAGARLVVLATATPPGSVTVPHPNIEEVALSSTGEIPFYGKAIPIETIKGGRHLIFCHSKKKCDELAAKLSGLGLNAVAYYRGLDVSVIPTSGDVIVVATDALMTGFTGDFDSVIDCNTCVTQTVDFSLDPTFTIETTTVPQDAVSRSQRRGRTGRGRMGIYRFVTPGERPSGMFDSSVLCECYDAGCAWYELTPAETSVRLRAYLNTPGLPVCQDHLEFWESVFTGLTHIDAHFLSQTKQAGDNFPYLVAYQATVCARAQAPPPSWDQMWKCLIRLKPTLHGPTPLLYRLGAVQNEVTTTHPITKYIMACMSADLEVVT
# T1 sequence (Q9WMX2 1658-1711): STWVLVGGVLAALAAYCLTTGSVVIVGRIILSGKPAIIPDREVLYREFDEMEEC
SMILES,EC50 [1] [nM],IC50 [2] [nM]
CC[C@@H]1CC1(NC(=O)[C@@H]1C[C@@H](OC(=O)N2Cc3cccc(Cl)c3C2)CN1C(=O)[C@@H](Nc1cccnc1)C(C)(C)C)C(=O)NS(=O)(=O)C1CC1 (some centres unmarked) [Compound 1],< 100,< 100
CC[C@@H]1C[C@]1(NC(=O)[C@@H]1C[C@@H](OC(=O)N2Cc3cccc(F)c3C2)CN1C(=O)[C@@H](Nc1ccc(C(=O)OC)cc1)C(C)(C)C)C(=O)NS(=O)(=O)C1CC1 [Compound 2],100 to 1000,< 100
CC[C@@H]1C[C@]1(NC(=O)[C@@H]1C[C@@H](OC(=O)N2Cc3cccc(F)c3C2)CN1C(=O)[C@@H](Nc1ccc(C(=O)O)cc1)C(C)(C)C)C(=O)NS(=O)(=O)C1CC1 [Compound 3],> 1000,< 100
CCOC(=O)c1cccc(N[C@H](C(=O)N2C[C@H](OC(=O)N3Cc4cccc(F)c4C3)C[C@H]2C(=O)N[C@]2(C(=O)NS(=O)(=O)C3CC3)C[C@H]2CC)C(C)(C)C)c1 [Compound 4],100 to 1000,< 100
CC[C@@H]1C[C@]1(NC(=O)[C@@H]1C[C@@H](OC(=O)N2Cc3cccc(F)c3C2)CN1C(=O)[C@@H](Nc1cccc(C(=O)O)c1)C(C)(C)C)C(=O)NS(=O)(=O)C1CC1 [Compound 5],> 1000,< 100
C=C[C@@H]1C[C@]1(NC(=O)[C@@H]1C[C@@H](Oc2nccc3ccccc23)CN1C(=O)[C@@H](Nc1ccc(F)c(C(F)(F)F)c1)C(C)(C)C)C(=O)NS(=O)(=O)C1CC1 [Compound 6],< 100,< 100
C=C[C@@H]1C[C@]1(NC(=O)[C@@H]1C[C@@H](Oc2nccc3ccccc23)CN1C(=O)[C@@H](Nc1cc(F)cc(C(F)(F)F)c1)C(C)(C)C)C(=O)NS(=O)(=O)C1CC1 [Compound 7],< 100,< 100
CC[C@@H]1C[C@]1(NC(=O)[C@@H]1C[C@@H](OC(=O)N2Cc3cccc(F)c3C2)CN1C(=O)[C@@H](Nc1cccc(C(=O)N2CCN(C)CC2)c1)C(C)(C)C)C(=O)NS(=O)(=O)C1CC1 [Compound 8],> 1000,< 100
CC[C@@H]1C[C@]1(NC(=O)[C@@H]1C[C@@H](OC(=O)N2Cc3cccc(F)c3C2)CN1C(=O)[C@@H](Nc1cccc(C(=O)N2CCNCC2)c1)C(C)(C)C)C(=O)NS(=O)(=O)C1CC1 [Compound 9],> 1000,< 100
CC[C@@H]1C[C@]1(NC(=O)[C@@H]1C[C@@H](OC(=O)N2Cc3cccc(F)c3C2)CN1C(=O)[C@@H](Nc1cccc(S(=O)(=O)N2CCOCC2)c1)C(C)(C)C)C(=O)NS(=O)(=O)C1CC1 [Compound 10],> 1000,< 100
CC[C@@H]1C[C@]1(NC(=O)[C@@H]1C[C@@H](OC(=O)N2Cc3cccc(F)c3C2)CN1C(=O)[C@@H](Nc1ccc(C(=O)N2CCOCC2)cc1)C(C)(C)C)C(=O)NS(=O)(=O)C1CC1 [Compound 11],> 1000,< 100
CC[C@@H]1C[C@]1(NC(=O)[C@@H]1C[C@@H](OC(=O)N2Cc3cccc(F)c3C2)CN1C(=O)[C@@H](Nc1cccc(OC(F)(F)F)c1)C(C)(C)C)C(=O)NS(=O)(=O)C1CC1 [Compound 12],< 100,< 100
CC[C@@H]1C[C@]1(NC(=O)[C@@H]1C[C@@H](OC(=O)N2Cc3cccc(F)c3C2)CN1C(=O)[C@@H](Nc1cccc(C(=O)NCCN(C)C)c1)C(C)(C)C)C(=O)NS(=O)(=O)C1CC1 [Compound 13],> 1000,< 100
C=C[C@@H]1C[C@]1(NC(=O)[C@@H]1Cc2cc(Oc3cccc(Cl)c3)ccc2CN1C(=O)[C@@H](Nc1cccc(C(F)(F)F)c1)C(C)(C)C)C(=O)NS(=O)(=O)C1(C)CC1 [Compound 21],,< 100
C=C[C@@H]1C[C@]1(NC(=O)[C@@H]1Cc2cc(Oc3cccc(Cl)c3)ccc2CN1C(=O)[C@@H](Nc1ccc(F)cc1)C(C)(C)C)C(=O)NS(=O)(=O)C1(C)CC1 [Compound 25],,< 100
C=C[C@@H]1C[C@]1(NC(=O)[C@H]1Cc2cc(Oc3cccc(Cl)c3)ccc2CN1C(=O)[C@@H](Nc1ccc(F)cc1)C(C)(C)C)C(=O)NS(=O)(=O)C1(C)CC1 [Compound 26],,100 to 1000
C=C[C@@H]1C[C@]1(NC(=O)[C@@H]1Cc2cc(Oc3cccc(Cl)c3)ccc2CN1C(=O)[C@@H](Nc1ccc(F)cc1)C(C)(C)C)C(=O)NS(=O)(=O)C1CC1 [Compound 27],,< 100
C=C[C@@H]1C[C@]1(NC(=O)[C@@H]1Cc2cc(Oc3cccc(Cl)c3)ccc2CN1C(=O)[C@@H](Nc1ccc(F)cc1)C(C)(C)C)C(=O)NS(=O)(=O)C1CC1 [Compound 28],,100 to 1000
CC[C@@H]1C[C@]1(NC(=O)[C@@H]1C[C@@H](Oc2cc(-c3nc(C(C)C)cs3)nc3c(C)c(OC)ccc23)CN1C(=O)[C@@H](Nc1cc(F)cc(C(F)(F)F)c1)C(C)(C)C)C(=O)NS(=O)(=O)C1(C)CC1 [Compound 300],< 100,
